The text below walks through data of PubChem BioAssay (NCI).

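Exposure lasted 48 hours, with cells grown in 96-well plates and compounds tested at five concentrations. Here, GI50 denotes the concentration required for 50% inhibition of growth. TGI is the concentration that stops growth completely.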

Among the test systems are SF-539 CNS; SF-268 CNS; SF-295 CNS; UACC-257 melanoma; SNB-75 CNS; NCI-H460 lung; SK-MEL-2 melanoma; T-47D breast; BT-549 breast; PC-3 prostate.
What all share (test): NCI anticancer screen, dose series, 48 h

As for `COC12C=C/C(=C(/C(=O)OCc3csc(SC)n3)C(=O)CCCCCCCCC3(OC)C=C/C(=C(/C(=O)OCc4cnc(SC)s4)C(=O)CCCCCCCC1)O3)O2` (stereo not drawn), the GI50 in the assay on SF-539 CNS is 4030 nM; in the assay with SF-268 CNS, 5.75 µM; in the assay with SF-295 CNS, 3330 nM; with UACC-257 melanoma it was 6010 nM; with SNB-75 CNS, 7610 nM; in the assay on NCI-H460 lung, 4570 nM. Besides, the GI50 in the assay on SK-MEL-2 melanoma was 3690 nM; with T-47D breast, 2940 nM; in the assay with BT-549 breast it was 4.53 µM; in the assay on PC-3 prostate, 4160 nM. Besides, the TGI in the assay on SF-539 CNS is 19.8 µM; in the assay with SF-268 CNS, > 100 µM; in the assay on SF-295 CNS it was 25.7 µM; in the assay on UACC-257 melanoma, > 100 µM; with SNB-75 CNS, 28.9 µM; in the assay with NCI-H460 lung, > 100 µM. The TGI is 16.6 µM with SK-MEL-2 melanoma, > 100 µM in the assay on T-47D breast, 69.8 µM in the assay with BT-549 breast and > 100 µM in the assay on PC-3 prostate.
Turning to `COc1ccc(-c2nn(-c3cccc(Cl)c3)cc2/C=C2\C(=N)N(c3ccccc3)N=C2N)cc1`, the GI50 is 617 nM in the assay with SF-539 CNS; 4.52 µM in the assay on SF-268 CNS; 271 nM with SF-295 CNS; 2140 nM in the assay with UACC-257 melanoma; 18800 nM in the assay with SNB-75 CNS; 445 nM with NCI-H460 lung. Also, the GI50 with SK-MEL-2 melanoma was 1660 nM; in the assay on T-47D breast, 1810 nM; with BT-549 breast it was 5.75 µM; in the assay with PC-3 prostate, 601 nM. Also, the TGI with SF-539 CNS was 3.52 µM; in the assay on SF-268 CNS, > 100 µM; in the assay with SF-295 CNS, 2.83 µM; in the assay on UACC-257 melanoma, 33.6 µM; with SNB-75 CNS, 98.6 µM; with NCI-H460 lung, 7.4 µM. In addition, the TGI in the assay on SK-MEL-2 melanoma was 12.6 µM; with T-47D breast, > 100 µM; in the assay on BT-549 breast, 39.2 µM; in the assay with PC-3 prostate, > 59 µM.
Regarding `COc1ccc2nc3cc(Cl)ccc3c(Nc3ccc(O)c(CN4CCCC4)c3)c2c1`, the GI50 was 1870 nM with SF-539 CNS; 3.79 µM in the assay on SF-268 CNS; 1600 nM in the assay on SF-295 CNS; 2150 nM in the assay on UACC-257 melanoma; 1990 nM with SNB-75 CNS; 2460 nM with NCI-H460 lung. For the same compound, the GI50 was 1990 nM in the assay on SK-MEL-2 melanoma, 2180 nM in the assay with T-47D breast, 14.5 µM in the assay with BT-549 breast and 3280 nM in the assay on PC-3 prostate. Also, the TGI with SF-539 CNS is 3.49 µM; in the assay on SF-268 CNS, > 100 µM; in the assay with SF-295 CNS it was 3.53 µM; with UACC-257 melanoma, 3.83 µM; in the assay with SNB-75 CNS, 3.79 µM; in the assay with NCI-H460 lung, 6.15 µM. Also, the TGI in the assay with SK-MEL-2 melanoma was found to be 3.77 µM; with T-47D breast it was 6.46 µM; in the assay with BT-549 breast, 28.1 µM; with PC-3 prostate it was 11 µM.
Regarding `NC(=O)c1c(NC(=O)c2cccc(C(F)(F)F)c2)sc2c1CCC(=O)C2`, the GI50 was 328 nM in the assay on SF-539 CNS; 0.429 µM with SF-268 CNS; 1230 nM in the assay on SF-295 CNS; 2170 nM in the assay with UACC-257 melanoma; 507 nM with SNB-75 CNS; 512 nM in the assay with NCI-H460 lung. For the same compound, the GI50 in the assay on SK-MEL-2 melanoma is 2060 nM; in the assay with T-47D breast, 274 nM; with BT-549 breast, 0.352 µM; in the assay on PC-3 prostate it was 218 nM. Moreover, the TGI with SF-539 CNS was 1.23 µM; in the assay with SF-268 CNS, > 100 µM; with SF-295 CNS it was 9.07 µM; in the assay on UACC-257 melanoma, 6.38 µM; in the assay on SNB-75 CNS, 3.84 µM; with NCI-H460 lung, > 100 µM. Also, the TGI was 6.25 µM in the assay with SK-MEL-2 melanoma, 9.08 µM in the assay with BT-549 breast and 2.1 µM with PC-3 prostate.
Take `COC(=O)C1=C(C(=O)OC)C(C(=O)OC)C(C(=O)OC)C(C(=O)OC)(C(=O)OC)C(C(=O)OC)=C1C(=O)OC` (stereo not drawn): the TGI in the assay on SF-539 CNS amounted to 36.7 µM; with SF-268 CNS it was 42.3 µM; in the assay with SF-295 CNS it was 39.9 µM; in the assay with UACC-257 melanoma, 27 µM; in the assay with SNB-75 CNS it was 34.5 µM; in the assay with NCI-H460 lung, 37.4 µM. Also, the TGI came to 35.1 µM in the assay with SK-MEL-2 melanoma, 50.8 µM in the assay on T-47D breast, 32.1 µM in the assay with BT-549 breast and 30.1 µM in the assay on PC-3 prostate.
For the compound `CC(=O)c1c(Nc2ccc(F)c(F)c2F)[nH]c2c(F)cc(F)cc2c1=O`, the GI50 is 322 nM in the assay on SF-539 CNS; 0.341 µM with SF-268 CNS; 308 nM in the assay on SF-295 CNS; 338 nM with UACC-257 melanoma; 289 nM in the assay with SNB-75 CNS; 331 nM in the assay on NCI-H460 lung. The GI50 in the assay with SK-MEL-2 melanoma was 322 nM; in the assay with T-47D breast it was 250 nM; in the assay with BT-549 breast, 0.335 µM; in the assay on PC-3 prostate, 252 nM. Moreover, the TGI was 4.33 µM with SF-539 CNS; 43.1 µM in the assay on SF-268 CNS; 1.5 µM in the assay with SF-295 CNS; 10 µM in the assay with UACC-257 melanoma; 8.52 µM in the assay with SNB-75 CNS; 11.2 µM with NCI-H460 lung. Besides, the TGI in the assay on SK-MEL-2 melanoma came out at 1.35 µM; in the assay with BT-549 breast, 5.76 µM; in the assay on PC-3 prostate, 1.33 µM.
Take `C#CCn1cc(C=C2C(=O)NC(=S)NC2=O)c2cc(Cl)ccc21`: the GI50 with SF-539 CNS was 1820 nM; with SF-268 CNS, 2.12 µM; in the assay on SF-295 CNS, 1930 nM; with UACC-257 melanoma, 2880 nM; with SNB-75 CNS, 1370 nM; in the assay on NCI-H460 lung it was 2290 nM. Moreover, the GI50 was 2410 nM with SK-MEL-2 melanoma, 3040 nM with T-47D breast, 1.91 µM with BT-549 breast and 2570 nM with PC-3 prostate. Moreover, the TGI in the assay on SF-539 CNS worked out at 3.49 µM; in the assay with SF-268 CNS, 5.41 µM; in the assay with SF-295 CNS, 4.12 µM; in the assay with UACC-257 melanoma it was 8.63 µM; with SNB-75 CNS it was 3.67 µM; in the assay with NCI-H460 lung, 5.12 µM. The TGI with SK-MEL-2 melanoma turned out to be 5.91 µM; with T-47D breast, 14.1 µM; in the assay with BT-549 breast, 3.89 µM; in the assay on PC-3 prostate, 6.89 µM.
In the case of `CC(C)(C)OC(=O)n1c(Cl)c(C(=O)N=C=S)c2ccccc21`, the GI50 is 23000 nM in the assay with SF-539 CNS; 37.5 µM with SF-268 CNS; 33000 nM in the assay on SF-295 CNS; 55400 nM with UACC-257 melanoma; > 100000 nM with SNB-75 CNS; 39600 nM with NCI-H460 lung. The GI50 in the assay on SK-MEL-2 melanoma is 24700 nM; in the assay on T-47D breast, 47800 nM; in the assay with BT-549 breast, 30.9 µM; in the assay with PC-3 prostate, 24200 nM. The TGI in the assay with SF-539 CNS is 55.1 µM; in the assay on SF-268 CNS, > 100 µM; with SF-295 CNS, > 100 µM; in the assay with UACC-257 melanoma, > 100 µM; in the assay on SNB-75 CNS, > 100 µM; in the assay on NCI-H460 lung, > 100 µM. In addition, the TGI was 75.8 µM in the assay with SK-MEL-2 melanoma, > 100 µM in the assay on T-47D breast, 91.7 µM with BT-549 breast and > 100 µM with PC-3 prostate.
